Laboratory results reported in ChEMBL document CHEMBL1201862, “PubChem BioAssay data set” (2004).
The source made the active and inactive calls.

Columns and labels:
fMet-Leu-Phe receptor = target: T1, fMet-Leu-Phe receptor (Homo sapiens, UniProt P21462); experiment: formyl peptide receptor binders – dose response (AID 519); assay type: functional
T1 sequence (P21462 whole entry): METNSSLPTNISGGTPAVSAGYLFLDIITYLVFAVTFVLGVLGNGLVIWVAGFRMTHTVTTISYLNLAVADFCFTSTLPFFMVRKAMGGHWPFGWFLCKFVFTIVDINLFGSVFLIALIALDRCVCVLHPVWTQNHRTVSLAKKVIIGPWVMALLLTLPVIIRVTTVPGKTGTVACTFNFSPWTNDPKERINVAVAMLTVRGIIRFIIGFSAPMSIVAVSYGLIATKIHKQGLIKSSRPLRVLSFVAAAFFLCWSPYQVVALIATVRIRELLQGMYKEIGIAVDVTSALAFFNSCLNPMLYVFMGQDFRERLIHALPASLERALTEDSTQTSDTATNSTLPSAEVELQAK

Cytochrome P450 2C9 = Cytochrome P450 2C9 (Homo sapiens, UniProt P11712)
Cytochrome P450 2C9, sequence (P11712 whole entry): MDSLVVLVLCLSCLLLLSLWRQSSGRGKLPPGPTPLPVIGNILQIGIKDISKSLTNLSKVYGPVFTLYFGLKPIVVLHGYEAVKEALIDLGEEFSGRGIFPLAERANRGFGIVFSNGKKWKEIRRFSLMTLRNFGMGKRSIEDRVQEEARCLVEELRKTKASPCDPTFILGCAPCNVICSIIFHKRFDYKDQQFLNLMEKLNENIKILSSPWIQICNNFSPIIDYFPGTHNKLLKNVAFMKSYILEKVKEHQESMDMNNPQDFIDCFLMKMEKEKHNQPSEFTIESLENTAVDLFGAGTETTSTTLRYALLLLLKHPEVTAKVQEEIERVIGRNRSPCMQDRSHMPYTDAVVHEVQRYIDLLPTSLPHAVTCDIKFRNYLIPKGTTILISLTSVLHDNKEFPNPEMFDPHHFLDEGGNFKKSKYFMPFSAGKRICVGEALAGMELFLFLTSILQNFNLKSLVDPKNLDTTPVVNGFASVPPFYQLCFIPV

Cytochrome P450 2C19 = Cytochrome P450 2C19 (Homo sapiens, UniProt P33261); experiment: Cytochrome panel assay with activity outcomes. Panel member name: p450-cyp2c19 Compounds with AC50 equal or less than 10 uM are considered active; assay type: functional; details: read-out: AC50
Cytochrome P450 2C19, sequence (P33261 whole entry): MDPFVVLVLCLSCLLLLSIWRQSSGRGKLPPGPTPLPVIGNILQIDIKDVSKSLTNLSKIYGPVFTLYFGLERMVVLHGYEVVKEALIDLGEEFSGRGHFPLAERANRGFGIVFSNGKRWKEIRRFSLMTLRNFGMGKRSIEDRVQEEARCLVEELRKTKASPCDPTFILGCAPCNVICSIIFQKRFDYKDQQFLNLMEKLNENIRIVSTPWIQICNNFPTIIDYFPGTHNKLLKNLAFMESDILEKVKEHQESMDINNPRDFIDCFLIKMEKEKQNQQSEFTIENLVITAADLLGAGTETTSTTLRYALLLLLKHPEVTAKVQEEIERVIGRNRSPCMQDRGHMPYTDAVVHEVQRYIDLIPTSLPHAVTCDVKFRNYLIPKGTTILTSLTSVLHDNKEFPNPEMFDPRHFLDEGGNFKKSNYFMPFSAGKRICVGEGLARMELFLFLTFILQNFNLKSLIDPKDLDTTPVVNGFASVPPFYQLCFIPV

Prothrombin = Prothrombin (Homo sapiens, UniProt P00734); experiment: Thrombin 1536 HTS Dose Response Confirmation. [Related pubchem assays: 1046 (Thrombin 1536 HTS; hits were confirmed in this assay)]; assay type: functional
[1] = target: T2, Zinc finger protein mex-5 (Caenorhabditis elegans, UniProt Q9XUB2); experiment: potency of MEX-5 RNA-binding blockers – biochemical, C. elegans, fluorescence polarization, dose response (AID 1960)
T2 sequence (Q9XUB2 whole entry): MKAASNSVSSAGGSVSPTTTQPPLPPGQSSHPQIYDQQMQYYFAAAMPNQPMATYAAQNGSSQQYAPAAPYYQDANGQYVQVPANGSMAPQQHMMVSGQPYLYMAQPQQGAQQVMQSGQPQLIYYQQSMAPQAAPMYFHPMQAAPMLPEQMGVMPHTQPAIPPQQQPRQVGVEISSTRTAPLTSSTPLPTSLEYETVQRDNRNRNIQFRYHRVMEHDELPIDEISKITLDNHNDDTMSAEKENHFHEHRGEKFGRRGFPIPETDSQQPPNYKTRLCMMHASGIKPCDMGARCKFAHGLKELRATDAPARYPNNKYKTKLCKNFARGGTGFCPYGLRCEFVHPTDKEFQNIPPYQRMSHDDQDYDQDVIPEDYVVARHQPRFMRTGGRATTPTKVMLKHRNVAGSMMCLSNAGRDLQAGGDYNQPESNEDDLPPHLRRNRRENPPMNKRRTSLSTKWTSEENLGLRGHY

[2] = A Cell Based Secondary Assay To Explore Cytotoxicity of Compounds that Sensitize Mycobacterium Tuberculosis to Beta-Lactam Antibiotics.; assay type: functional
[3] = target: T3, RNA-binding protein pos-1 (Caenorhabditis elegans, UniProt G5EF15); experiment: disruptors of C. elegans POS-1 RNA interaction – biochemical, fluorescence polarization, dose response (AID 1964);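 further: purified POS-1 fused to maltose binding protein made in E. coli; potency of compounds blocking POS-1 binding to fluorescent RNA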
T3 sequence (G5EF15 whole entry): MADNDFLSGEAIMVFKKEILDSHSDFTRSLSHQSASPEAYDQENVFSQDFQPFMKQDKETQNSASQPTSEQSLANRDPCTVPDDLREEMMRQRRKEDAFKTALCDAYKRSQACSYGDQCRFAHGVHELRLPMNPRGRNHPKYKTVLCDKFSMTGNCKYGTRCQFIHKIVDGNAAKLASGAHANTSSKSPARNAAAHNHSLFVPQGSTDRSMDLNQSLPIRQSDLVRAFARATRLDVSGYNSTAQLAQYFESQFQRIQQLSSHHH

Aminopeptidase N = target: T4, Aminopeptidase N (Plasmodium falciparum FcB1/Columbia, UniProt O96935); experiment: malaria alanyl aminopeptidase activity blockers – biochemical, fluorogenic H-Leu-NHMec substrate, 1536-well (AID 1445); design: species or system Plasmodium falciparum 3D7, 3D7
T4 sequence (O96935 whole entry): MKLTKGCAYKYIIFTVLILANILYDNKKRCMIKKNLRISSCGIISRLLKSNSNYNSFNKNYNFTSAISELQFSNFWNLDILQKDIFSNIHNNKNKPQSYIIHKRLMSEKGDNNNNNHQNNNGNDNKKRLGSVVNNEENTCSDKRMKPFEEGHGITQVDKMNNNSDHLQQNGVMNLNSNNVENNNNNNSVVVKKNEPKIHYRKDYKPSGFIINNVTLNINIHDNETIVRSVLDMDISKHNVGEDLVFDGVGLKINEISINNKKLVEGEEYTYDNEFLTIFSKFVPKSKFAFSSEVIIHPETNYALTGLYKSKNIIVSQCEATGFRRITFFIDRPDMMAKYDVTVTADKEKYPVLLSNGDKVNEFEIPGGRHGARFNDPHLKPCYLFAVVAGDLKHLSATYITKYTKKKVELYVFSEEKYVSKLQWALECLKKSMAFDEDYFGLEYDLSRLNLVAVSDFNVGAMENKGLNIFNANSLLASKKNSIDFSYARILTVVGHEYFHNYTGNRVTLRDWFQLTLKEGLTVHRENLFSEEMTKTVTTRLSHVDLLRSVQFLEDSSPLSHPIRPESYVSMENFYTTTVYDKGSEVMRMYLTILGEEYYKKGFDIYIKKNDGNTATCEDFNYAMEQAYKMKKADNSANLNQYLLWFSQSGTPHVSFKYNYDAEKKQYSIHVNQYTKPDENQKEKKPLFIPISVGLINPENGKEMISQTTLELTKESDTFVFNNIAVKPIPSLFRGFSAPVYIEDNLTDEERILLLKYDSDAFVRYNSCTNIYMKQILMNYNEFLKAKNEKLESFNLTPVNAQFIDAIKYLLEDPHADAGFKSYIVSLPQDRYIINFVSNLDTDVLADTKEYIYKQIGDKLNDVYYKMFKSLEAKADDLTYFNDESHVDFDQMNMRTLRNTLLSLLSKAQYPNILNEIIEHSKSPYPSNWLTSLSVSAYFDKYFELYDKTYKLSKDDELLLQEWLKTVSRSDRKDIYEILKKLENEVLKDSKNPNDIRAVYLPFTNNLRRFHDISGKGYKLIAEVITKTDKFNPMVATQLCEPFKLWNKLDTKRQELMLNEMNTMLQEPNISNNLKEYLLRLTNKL

[4] = target: T5, Long-chain-fatty-acid--AMP ligase FadD28 (Mycobacterium tuberculosis, UniProt P9WQ59); experiment: Fluorescence polarization aasay to screen for inhibitors that compete for the binding of FadD28 to a bisubstrate Measured in Biochemical System Using Plate Reader - 2147-01_Inhibitor_Dose_CherryPick_Activity.; assay type: functional, Mycobacterium tuberculosis H37Rv
T5 sequence (P9WQ59 whole entry): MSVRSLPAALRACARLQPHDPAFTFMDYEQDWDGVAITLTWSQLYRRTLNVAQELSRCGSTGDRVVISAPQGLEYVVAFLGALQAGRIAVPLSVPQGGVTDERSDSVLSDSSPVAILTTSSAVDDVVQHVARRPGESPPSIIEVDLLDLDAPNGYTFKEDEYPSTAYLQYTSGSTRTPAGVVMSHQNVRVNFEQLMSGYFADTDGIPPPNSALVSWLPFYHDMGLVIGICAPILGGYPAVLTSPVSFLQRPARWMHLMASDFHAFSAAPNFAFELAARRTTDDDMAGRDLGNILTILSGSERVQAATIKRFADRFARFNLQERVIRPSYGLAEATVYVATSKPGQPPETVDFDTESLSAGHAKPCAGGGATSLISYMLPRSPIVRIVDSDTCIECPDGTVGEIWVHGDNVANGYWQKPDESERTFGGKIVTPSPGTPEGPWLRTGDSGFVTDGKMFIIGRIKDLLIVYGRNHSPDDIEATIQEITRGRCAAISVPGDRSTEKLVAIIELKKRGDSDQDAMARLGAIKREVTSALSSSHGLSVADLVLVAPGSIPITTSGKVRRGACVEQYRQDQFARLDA

[5] = OVCAR-3 cell viability loss – plate reader, dry powder samples, PAX8 inhibitor project, dose response (AID 743044); assay type: functional, cell-based
Paired box protein Pax-8 = Paired box protein Pax-8 (Homo sapiens, UniProt Q06710); experiment: PAX8 transcriptional activity inhibition in RMG-I – RMG-I cells, luciferase, cherry-pick, dose response (AID 687027); assay type: functional, cell-based;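 further: luciferase reporter driven by Pax8 target thyroperoxidase promoter measured by SteadyGlo luminescence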
Paired box protein Pax-8, sequence (Q06710 whole entry): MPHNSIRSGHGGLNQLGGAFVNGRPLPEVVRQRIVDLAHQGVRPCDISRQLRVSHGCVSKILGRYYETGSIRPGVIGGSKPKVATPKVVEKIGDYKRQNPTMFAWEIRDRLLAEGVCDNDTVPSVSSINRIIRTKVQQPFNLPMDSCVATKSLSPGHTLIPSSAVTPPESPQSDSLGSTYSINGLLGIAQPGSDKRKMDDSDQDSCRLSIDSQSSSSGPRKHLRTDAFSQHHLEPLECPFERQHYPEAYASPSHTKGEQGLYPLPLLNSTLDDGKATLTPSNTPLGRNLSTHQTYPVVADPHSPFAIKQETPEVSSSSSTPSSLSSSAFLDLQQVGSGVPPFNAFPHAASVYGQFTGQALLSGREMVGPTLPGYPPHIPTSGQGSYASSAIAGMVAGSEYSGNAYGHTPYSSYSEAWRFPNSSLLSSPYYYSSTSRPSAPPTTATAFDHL

## Cc1nc2c(C)cccn2c1C(=O)C1=C(O)C(=O)N(CCN2CCOCC2)C1c1cccs1 (stereo not given)
fMet-Leu-Phe receptor
  Ki: > 66.7 µM (inactive)
Cytochrome P450 2C9
  AC50: 10 µM (inconclusive)
Cytochrome P450 2C19
  AC50: 8.91 µM (inconclusive)

## CC(C)Nc1nc(C#N)nc(NC(C)C)n1
Prothrombin
  IC50: 23 µM (active)

## CN(C)CCCN(C(=O)/C=C/c1cccs1)c1nc2ccc(F)cc2s1
[1]
  EC50: > 300 µM (not active)
[2]
  CC50: 12.4 µM (active)
[3]
  EC50: > 300 µM (not active)

## COc1cccc(NS(=O)(=O)c2ccc3ncc(C(=O)NCCC(C)C)c(O)c3c2)c1
[2]
  CC50: > 40 µM (active)

## Cc1ccc(OCc2nnc(S)n2N)cc1C
Prothrombin
  IC50: > 50 µM (not active)

## COC(=O)Cc1ccc(NC(=S)N2CCN(c3ccc(F)cc3)CC2)cc1
Prothrombin
  IC50: > 50 µM (not active)

## COc1cc(/C=N/NC(=O)C(Cc2c[nH]c3ccccc23)NC(=O)OCC(C)C)cc([N+](=O)[O-])c1O (stereo not given)
Aminopeptidase N
  IC50: 16.7 µM (active)
[4]
  AC50: 65.6 µM (active)

## CC(C)NC(=O)N(C)C[C@H]1OCCCC[C@H](C)Oc2ccc(NC(=O)Nc3ccc(C(F)(F)F)cc3)cc2C(=O)N([C@H](C)CO)C[C@@H]1C
[5]
  AC50: 53.3 µM (active)
Paired box protein Pax-8
  AC50: 12.5 µM (active)

## CCCC(C)C1(CC)C(=O)N=C(Nc2ccccc2OC)NC1=O (stereo not given)
Aminopeptidase N
  IC50: 52.1 µM (active)
